Laboratory results taken from patent US20170008888A1 (KYORIN PHARMACEUTICAL CO., LTD., priority 2014, published 2017).
pEC50, pIC50: −log10 of the molar value.

Columns and labels:
[1] = molecular target: T1, recombinant human ERK5 catalytic domain (Homo sapiens, UniProt Q13164); assay: Recombinant human ERK5 radiometric (HotSpot) assay; type: biochemical; details: 10 μM ATP, 20 μM myelin basic protein substrate; read-out: rhERK5 IC50
T1 construct: Recombinant human ERK5 catalytic domain radiometric assays; purchased Reaction Biology, Corp (Malvern, Pa.), which ran the assay as a service
T1 sequence (Q13164 55-347 limits assumed): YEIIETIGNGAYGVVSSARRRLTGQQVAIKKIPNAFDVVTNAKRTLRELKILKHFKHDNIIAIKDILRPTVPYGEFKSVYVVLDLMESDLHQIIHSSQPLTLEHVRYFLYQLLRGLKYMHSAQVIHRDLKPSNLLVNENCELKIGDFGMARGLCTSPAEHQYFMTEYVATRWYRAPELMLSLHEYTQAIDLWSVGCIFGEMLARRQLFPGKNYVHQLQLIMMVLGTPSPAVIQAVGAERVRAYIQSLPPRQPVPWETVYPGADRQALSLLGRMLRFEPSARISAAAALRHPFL
Procedure: In this example, potency of the compounds in recombinant human ERK5 was assayed.
Recombinant human ERK5 catalytic domain radiometric assays were performed by Reaction Biology, Corp (Malvern, Pa.). The HotSpot radiometric assay is based on conventional filter-binding assays (Nature Biotechnology (2011) 29: 1039-1045). Compounds were tested at 20 μM down by ⅓ in a 10 point serial dilution series. Briefly, [γ-33P]-ATP was used as the tracer along with 10 μM cold ATP to label ERK5 in the presence of 20 μM myelin basic protein substrate.

human PBMCs = assay: Human PBMC TNF-α response to endotoxin (ELISA); type: cell-based; details: 0.1 μg/ml LPS 16 h, read-out: EC50 for the inhibition of the human PBMC TNF-α response to endotoxin, ave. ± S.D.
Summary of the method: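 PBMCs at 2e6 cells/ml in RPMI 1640 with 10% charcoal-dextran-treated FBS were pre-treated 1 h at 37 °C with compound (4-point 1:5 dilution from 10 μM). Stimulation with 0.1 μg/ml E. coli 0111:B4 LPS for 16 h; TNF-α measured by ELISA (A450) in 25-fold diluted supernatant.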

JAK1 = molecular target: T2, JAK1 (Homo sapiens, UniProt P23458); assay: Probe-based (AX9989) kinase profiling in Jurkat lysate: JAK1; type: binding; details: screening concentration 1.0 μM; read-out: Kinase inhibition % at indicated screening concentration: JAK1
T2 construct: screened for activity against several kinases in Jurkat cells; endogenous in cells; host or cells: Jurkat cell lysate
T2 sequence (P23458 whole entry): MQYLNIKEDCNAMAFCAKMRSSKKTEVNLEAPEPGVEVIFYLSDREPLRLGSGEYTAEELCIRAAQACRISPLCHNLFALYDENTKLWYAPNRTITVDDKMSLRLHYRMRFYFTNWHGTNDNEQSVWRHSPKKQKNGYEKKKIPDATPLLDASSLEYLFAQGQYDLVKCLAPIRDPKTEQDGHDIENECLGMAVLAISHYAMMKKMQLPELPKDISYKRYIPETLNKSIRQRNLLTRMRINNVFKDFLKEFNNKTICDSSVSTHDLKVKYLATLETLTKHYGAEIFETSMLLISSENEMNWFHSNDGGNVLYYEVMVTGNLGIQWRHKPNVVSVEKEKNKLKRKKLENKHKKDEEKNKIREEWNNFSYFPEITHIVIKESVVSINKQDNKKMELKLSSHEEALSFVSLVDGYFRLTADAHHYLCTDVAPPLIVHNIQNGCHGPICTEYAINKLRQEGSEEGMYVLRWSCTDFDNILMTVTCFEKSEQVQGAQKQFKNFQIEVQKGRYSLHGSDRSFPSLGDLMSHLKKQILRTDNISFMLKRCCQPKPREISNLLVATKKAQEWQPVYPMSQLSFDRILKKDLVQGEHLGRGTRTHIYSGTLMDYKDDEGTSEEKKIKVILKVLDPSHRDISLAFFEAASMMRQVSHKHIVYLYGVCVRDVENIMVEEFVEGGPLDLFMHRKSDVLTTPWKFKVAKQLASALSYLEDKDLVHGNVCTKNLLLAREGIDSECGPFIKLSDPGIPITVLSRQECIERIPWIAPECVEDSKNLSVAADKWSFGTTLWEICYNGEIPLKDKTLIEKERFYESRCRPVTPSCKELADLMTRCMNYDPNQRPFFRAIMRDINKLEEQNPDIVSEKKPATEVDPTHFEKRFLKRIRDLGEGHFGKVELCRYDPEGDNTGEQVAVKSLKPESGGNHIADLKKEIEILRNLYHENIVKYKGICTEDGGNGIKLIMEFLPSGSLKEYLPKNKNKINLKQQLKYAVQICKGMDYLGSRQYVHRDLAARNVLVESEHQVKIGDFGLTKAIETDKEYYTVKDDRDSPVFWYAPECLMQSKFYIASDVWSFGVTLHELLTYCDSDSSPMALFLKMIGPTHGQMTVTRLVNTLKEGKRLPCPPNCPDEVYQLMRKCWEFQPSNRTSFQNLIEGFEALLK
Summary of the method: (§1)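 Percent inhibition was derived from reduced LC/MS fragment intensities of probe-labeled peptides relative to compound-free controls. Before labeling with 5 μM AX9989, Mn2+-supplemented (20 mM) Jurkat lysate was exposed to compound for 15 min at room temperature.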

ABL or ARG = assay: Probe-based (AX9989) kinase profiling in Jurkat lysate: ABL or ARG; type: binding; details: screening concentration 1.0 μM
Summary of the method: as §1

[2] = molecular target: T3, BRD4 bromodomain domain I [BRD4(1)] (Homo sapiens, UniProt O60885); assay: BRD4 bromodomain domain 1 inhibition assay (TR-FRET); type: binding; details: screening concentration 10 μM
T3 construct: BRD4 bromodomain domain I [BRD4(1)]; purchased Cayman Chemicals
Procedure: The inhibitory activity of test compounds on the bromodomain, BRD4 bromodomain domain I [BRD4(1)], were determined via TR-FRET after a slight modification of the manufacturer's protocol (Cayman Chemicals, Ann Arbor, Mich.). Briefly, compounds were diluted to a 20× ([…]) concentration in DMSO. 100 nL of 20× compounds were then dry stamped into triplicate wells of black, low volume 384 well plates (Aurora Biotechnologies, Carlsbad, Calif.) using the Mosquito liquid handler (TPP Labtech, Melbourn, UK). 20× compounds were then diluted to a 4× (40 μM) concentration in Assay Buffer to result in 2% DMSO content. […] JQ1 at 10 μM or 0.5% DMSO final concentrations were used as the positive and negative controls, respectively, to set the assay window. The fluorescence was read in a time-resolved format on the Biotec Synergy 2 plate reader by exciting the signal at 340 nm and reading emissions at 620 and 670, using a 100 μs delay and 200 μs read window. […] Briefly, TR-FRET ratio values were normalized to the average TR-FRET ratio value given by 10 μM JQ1. […]

AMPKa1 or AMPKa2 = assay: Probe-based (AX9989) kinase profiling in Jurkat lysate: AMPKa1 or AMPKa2; type: binding; details: screening concentration 1.0 μM
Summary of the method: as §1

AurB or AurC = assay: Probe-based (AX9989) kinase profiling in Jurkat lysate: AurB or AurC; type: binding; details: screening concentration 1.0 μM
Summary of the method: as §1

AurA = molecular target: T4, AurA (Homo sapiens, UniProt O14965); assay: Probe-based (AX9989) kinase profiling in Jurkat lysate: AurA; type: binding; details: screening concentration 1.0 μM; read-out: Kinase inhibition % at indicated screening concentration: AurA
T4 construct: screened for activity against several kinases in Jurkat cells; endogenous in cells; host or cells: Jurkat cell lysate
T4 sequence (O14965 1-403): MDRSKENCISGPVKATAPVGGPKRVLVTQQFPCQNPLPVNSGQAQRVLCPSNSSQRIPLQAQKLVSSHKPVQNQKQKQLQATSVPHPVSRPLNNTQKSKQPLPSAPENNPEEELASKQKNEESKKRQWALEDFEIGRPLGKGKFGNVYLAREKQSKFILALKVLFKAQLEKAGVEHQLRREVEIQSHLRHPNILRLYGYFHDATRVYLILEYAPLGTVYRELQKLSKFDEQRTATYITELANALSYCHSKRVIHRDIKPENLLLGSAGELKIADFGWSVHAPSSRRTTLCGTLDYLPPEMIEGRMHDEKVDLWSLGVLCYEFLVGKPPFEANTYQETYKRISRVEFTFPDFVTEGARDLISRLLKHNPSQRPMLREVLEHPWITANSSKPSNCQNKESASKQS
Summary of the method: as §1

ERK5 = molecular target: T5, ERK5 (Homo sapiens, UniProt Q13164); assay: Probe-based (AX9989 acyl phosphate ATP probe) kinase profiling in Jurkat lysate: ERK5; type: binding; details: for pIC50: calculated from percent inhibition of AX9989 labeling and the screening concentration, Jurkat lysate; for inhibition at 1 µM: screening concentration 1.0 μM, read-out: Kinase inhibition % at indicated screening concentration: ERK5
T5 construct: screened for activity against several kinases in Jurkat cells; endogenous in cells; host or cells: Jurkat cell lysate
T5 sequence (Q13164 whole entry): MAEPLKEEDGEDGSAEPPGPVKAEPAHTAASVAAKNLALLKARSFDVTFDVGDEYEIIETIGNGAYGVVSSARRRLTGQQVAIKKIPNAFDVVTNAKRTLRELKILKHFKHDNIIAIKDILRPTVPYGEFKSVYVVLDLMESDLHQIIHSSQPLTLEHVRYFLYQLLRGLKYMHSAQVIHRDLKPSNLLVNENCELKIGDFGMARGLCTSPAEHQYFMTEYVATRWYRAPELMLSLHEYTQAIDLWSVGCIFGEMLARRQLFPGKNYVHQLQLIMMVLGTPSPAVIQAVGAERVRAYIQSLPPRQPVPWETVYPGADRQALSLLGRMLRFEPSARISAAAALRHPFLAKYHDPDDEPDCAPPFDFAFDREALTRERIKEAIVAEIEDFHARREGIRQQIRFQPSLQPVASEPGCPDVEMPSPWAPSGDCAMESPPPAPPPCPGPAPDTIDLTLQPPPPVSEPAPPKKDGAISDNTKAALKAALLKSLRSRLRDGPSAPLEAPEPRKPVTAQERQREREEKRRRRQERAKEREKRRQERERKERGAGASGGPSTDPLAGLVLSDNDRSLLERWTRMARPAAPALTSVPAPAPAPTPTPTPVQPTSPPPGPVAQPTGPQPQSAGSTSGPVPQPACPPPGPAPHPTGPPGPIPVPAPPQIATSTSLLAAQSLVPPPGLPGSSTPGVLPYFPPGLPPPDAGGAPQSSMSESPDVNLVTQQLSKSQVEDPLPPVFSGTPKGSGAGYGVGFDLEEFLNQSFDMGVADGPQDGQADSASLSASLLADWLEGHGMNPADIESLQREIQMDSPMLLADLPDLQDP
Summary of the method: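 ERK5 IC50 values came from percent inhibition at the screening concentration, measured as loss of LC/MS signal of probe-labelled active-site peptides. Compound was added for 15 min at room temperature to Jurkat lysate (5 mg/ml, 20 mM MnCl2) before labelling with AX9989 ATP acyl phosphate probe at 5 μM.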

TAO2 = molecular target: T6, TAO2 (Homo sapiens, UniProt Q9UL54); assay: Probe-based (AX9989) kinase profiling in Jurkat lysate: TAO2; type: binding; details: screening concentration 1.0 μM; read-out: Kinase inhibition % at indicated screening concentration: TAO2
T6 construct: screened for activity against several kinases in Jurkat cells; endogenous in cells; host or cells: Jurkat cell lysate
T6 sequence (Q9UL54 1-1235): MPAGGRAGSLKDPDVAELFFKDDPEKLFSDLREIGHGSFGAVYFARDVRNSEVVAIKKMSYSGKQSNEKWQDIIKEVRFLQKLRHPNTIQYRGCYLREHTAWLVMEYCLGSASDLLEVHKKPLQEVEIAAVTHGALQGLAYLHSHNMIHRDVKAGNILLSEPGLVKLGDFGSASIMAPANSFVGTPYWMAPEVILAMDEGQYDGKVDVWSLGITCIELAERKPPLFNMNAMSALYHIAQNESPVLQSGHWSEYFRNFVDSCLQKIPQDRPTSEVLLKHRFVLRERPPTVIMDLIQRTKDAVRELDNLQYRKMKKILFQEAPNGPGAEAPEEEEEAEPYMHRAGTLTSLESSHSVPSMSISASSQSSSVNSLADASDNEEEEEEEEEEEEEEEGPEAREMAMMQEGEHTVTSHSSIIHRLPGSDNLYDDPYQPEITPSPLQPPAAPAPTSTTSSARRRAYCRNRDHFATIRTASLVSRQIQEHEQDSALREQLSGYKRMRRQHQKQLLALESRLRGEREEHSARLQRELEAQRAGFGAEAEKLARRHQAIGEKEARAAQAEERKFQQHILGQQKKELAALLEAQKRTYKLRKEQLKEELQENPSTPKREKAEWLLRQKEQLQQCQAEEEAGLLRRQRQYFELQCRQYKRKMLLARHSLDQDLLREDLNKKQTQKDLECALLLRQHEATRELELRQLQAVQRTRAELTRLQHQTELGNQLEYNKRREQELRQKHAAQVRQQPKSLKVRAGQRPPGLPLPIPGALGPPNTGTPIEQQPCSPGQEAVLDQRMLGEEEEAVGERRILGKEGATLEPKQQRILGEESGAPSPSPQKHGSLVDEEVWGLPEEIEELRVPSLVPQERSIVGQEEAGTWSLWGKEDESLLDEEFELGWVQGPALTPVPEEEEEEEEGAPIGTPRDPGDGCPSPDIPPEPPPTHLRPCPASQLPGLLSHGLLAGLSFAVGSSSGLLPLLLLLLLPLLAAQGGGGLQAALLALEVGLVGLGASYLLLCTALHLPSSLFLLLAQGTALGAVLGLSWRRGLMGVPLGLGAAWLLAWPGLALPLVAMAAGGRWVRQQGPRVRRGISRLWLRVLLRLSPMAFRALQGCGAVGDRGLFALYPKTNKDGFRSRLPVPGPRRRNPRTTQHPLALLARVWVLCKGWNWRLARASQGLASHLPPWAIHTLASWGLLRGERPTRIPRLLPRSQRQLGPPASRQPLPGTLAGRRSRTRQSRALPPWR
Summary of the method: as §1

ACK = molecular target: T7, ACK (Homo sapiens, UniProt Q07912); assay: Probe-based (AX9989) kinase profiling in Jurkat lysate: ACK; type: binding; details: screening concentration 1.0 μM; read-out: Kinase inhibition % at indicated screening concentration: ACK
T7 construct: screened for activity against several kinases in Jurkat cells; endogenous in cells; host or cells: Jurkat cell lysate
T7 sequence (Q07912 whole entry): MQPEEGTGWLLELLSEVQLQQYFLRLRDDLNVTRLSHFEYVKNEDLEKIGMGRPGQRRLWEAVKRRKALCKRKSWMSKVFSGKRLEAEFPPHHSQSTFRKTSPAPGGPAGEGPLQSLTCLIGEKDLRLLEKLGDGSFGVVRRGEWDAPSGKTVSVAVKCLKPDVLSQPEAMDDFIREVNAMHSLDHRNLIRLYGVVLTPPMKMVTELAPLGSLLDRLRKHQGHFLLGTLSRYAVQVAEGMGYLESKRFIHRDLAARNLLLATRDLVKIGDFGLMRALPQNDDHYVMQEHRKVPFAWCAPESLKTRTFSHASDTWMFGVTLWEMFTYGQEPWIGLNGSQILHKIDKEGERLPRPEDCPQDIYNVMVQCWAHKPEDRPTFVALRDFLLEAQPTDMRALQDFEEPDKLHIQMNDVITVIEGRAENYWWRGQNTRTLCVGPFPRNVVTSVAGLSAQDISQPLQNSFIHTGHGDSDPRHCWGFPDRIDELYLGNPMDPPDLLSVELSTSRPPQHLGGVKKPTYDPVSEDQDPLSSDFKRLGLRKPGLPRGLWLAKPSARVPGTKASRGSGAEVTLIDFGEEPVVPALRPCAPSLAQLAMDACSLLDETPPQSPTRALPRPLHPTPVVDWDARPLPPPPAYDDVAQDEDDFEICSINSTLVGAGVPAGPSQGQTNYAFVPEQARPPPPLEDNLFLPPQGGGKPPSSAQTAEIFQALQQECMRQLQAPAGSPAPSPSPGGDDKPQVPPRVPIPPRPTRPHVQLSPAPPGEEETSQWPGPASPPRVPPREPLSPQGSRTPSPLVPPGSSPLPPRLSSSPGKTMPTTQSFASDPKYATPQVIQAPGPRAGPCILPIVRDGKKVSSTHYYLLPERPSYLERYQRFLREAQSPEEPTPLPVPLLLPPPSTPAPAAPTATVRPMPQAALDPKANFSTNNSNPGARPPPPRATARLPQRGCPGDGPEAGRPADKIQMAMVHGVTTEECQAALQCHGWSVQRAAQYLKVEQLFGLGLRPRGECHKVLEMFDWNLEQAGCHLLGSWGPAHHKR
Summary of the method: as §1

Structure (SMILES)	pIC50 [1]	inhibition at 1 µM (JAK1)	Kinase inhibition % at indicated screening concentration: ABL or ARG (ABL or ARG)	inhibition at 10 µM [2]	Kinase inhibition % at indicated screening concentration: AMPKa1 or AMPKa2 (AMPKa1 or AMPKa2)	Kinase inhibition % at indicated screening concentration: AurB or AurC (AurB or AurC)	inhibition at 1 µM (AurA)	pIC50 (ERK5)	inhibition at 1 µM (ERK5)	inhibition at 1 µM (TAO2)	inhibition at 1 µM (ACK)	pEC50 (human PBMCs)
CCCOc1cc(C(=O)N2CCCNCC2)ccc1Nc1cc2c(cn1)N(C)C(=O)c1ccccc1N2C [Compound T40]	7.30 to 7.70	–	–	–	–	–	–	–	–	–	–	6.31
CCOc1cc(C(=O)N2CCC[C@H](O)C2)ccc1Nc1cc2c(cn1)N(C)C(=O)c1scnc1N2C [Compound T13]	6.70 to 7.30	–	–	–	–	–	–	–	–	–	–	6.02
CCOc1cc(C(=O)N2CCN(c3ccccn3)CC2)ccc1Nc1cc2c(cn1)N(C)C(=O)c1ccccc1N2C [Compound T35]	7.30 to 7.70	–	–	–	–	–	–	–	–	–	–	6.18
CN1C(=O)c2ccccc2N(C)c2cc(NC3CCC(C(=O)O)CC3)ncc21 (stereo not drawn) [Compound 23]	–	≤ 35%	E (E is ≦35%)	< 70%	E (E is ≦35%)	E (E is ≦35%)	≤ 35%	< 6.30	35 to 50%	≤ 35%	≤ 35%	–
CCOc1cc(C(=O)NC2CCC(O)CC2)ccc1Nc1cc2c(cn1)N(C)C(=O)c1ccccc1N2C (stereo not drawn) [Compound 109]	–	≤ 35%	E (E is ≦35%)	< 70%	E (E is ≦35%)	E (E is ≦35%)	≤ 35%	< 6.30	35 to 50%	≤ 35%	≤ 35%	–
CN1C(=O)c2ccccc2N(C)c2cc(N[C@H]3CC[C@H](O)CC3)ncc21 [Compound 33, 3-((1r,4r)-4-hydroxycyclohexylamino)-5,11-dimethyl-5H-benzo[e]pyrido[3,4-b][1,4]diazepin-10(11H)-one]	–	≤ 35%	E (E is ≦35%)	< 70%	E (E is ≦35%)	E (E is ≦35%)	≤ 35%	6.30 to 7.00	75 to 90%	≤ 35%	≤ 35%	–

Further lines, with some results ahead:

pIC50 [1]	inhibition at 1 µM (JAK1)	Kinase inhibition % at indicated screening concentration: ABL or ARG (ABL or ARG)	inhibition at 10 µM [2]	Kinase inhibition % at indicated screening concentration: AMPKa1 or AMPKa2 (AMPKa1 or AMPKa2)	Kinase inhibition % at indicated screening concentration: AurB or AurC (AurB or AurC)	inhibition at 1 µM (AurA)	pIC50 (ERK5)	inhibition at 1 µM (ERK5)	inhibition at 1 µM (TAO2)	inhibition at 1 µM (ACK)	Structure (SMILES)	pEC50 (human PBMCs)
7.30 to 7.70	–	–	–	–	–	–	–	–	–	–	CCOc1cc(C(=O)N2CCC[C@H](OC(=O)CN(C)C)C2)ccc1Nc1cc2c(cn1)N(C)C(=O)c1ccccc1N2C [Compound T44]	6.19
7.30 to 7.70	–	–	–	–	–	–	–	–	–	–	CCOc1cc(C(=O)N2CC[C@@H](N3CCNCC3)C2)ccc1Nc1cc2c(cn1)N(C)C(=O)c1ccccc1N2C [Compound T58]	5.98
> 7.70	–	–	–	–	–	–	–	–	–	–	CCOc1cc(C(=O)N2CCNC(C)CC2)ccc1Nc1cc2c(cn1)N(C)C(=O)c1ccccc1N2C (stereo not drawn) [Compound T46]	6.22
